Here are results for one substance from paper PMC5107945, “Abscinazole-E3M, a practical inhibitor of abscisic acid 8′-hydroxylase for improving drought tolerance” (Scientific Reports, 2016).

One assay relates to endogenous ABA level. The experiment in a line: Endogenous ABA levels in maize. In kind it is in vivo, Maize (cv. Gold rush). To be noted: maize 2-week-old seedlings, roots dipped in 100 μM overnight, aerial shoot tissues.
The test system of another assay is ABA catabolism. The following applies: in vivo.
Assay [1] has as its system MAPKKK18 promoter GUS reporter. The experiment in a line: ABA-responsive MAPKKK18::GUS reporter analysis. It counts as in vivo, Arabidopsis. The following applies: co-treatment with ABA; 5 or 25 μM, 6 h; Fig. S6. The procedure: MAPKKK18::GUS reporter-containing transgenic Arabidopsis[32] were grown for 6 d on agar plates containing 1/2 MS and 0.5% sucrose. Seedlings were incubated in 1/2 MS solutions containing 0.5% sucrose with chemicals for 6 h. GUS activities were detected using a reaction buffer containing 50 mM sodium phosphate buffer, 2.5 mM potassium ferrocyanide, 2.5 mM potassium ferricyanide and 1 mM X-gluc. The GUS enzyme reaction was performed at 30 °C for ~12 h. The reaction was stopped by adding 70% EtOH. Tissue-specific GUS staining was observed by microscope after bleaching the chlorophyll pigment.
Supplementary Figure 6. (−)-Abz-E3M enhanced the ABA-inducible MAPKKK18 expression level. Six-day-old seedlings of MAPKKK18::GUS reporter-containing transgenic plants were incubated in solutions containing either 5 or 25 µM of (−)-Abz-E3M

Procedure for ABA catabolism: For ABA measurements from Arabidopsis seedlings, samples (1–20 mg dry weight) were ground with beads in 2-mL tubes and homogenised in 1 mL 80% (v/v) MeCN containing 1% AcOH (v/v) with d6-ABA. After extracting for 16 h at 4 °C, samples were centrifuged at 4 °C for 10 min at 3,000× g, and supernatants were collected. Samples were re-extracted twice with 1 mL 80% MeCN at 4 °C for 30 min, and the supernatants were collected after centrifugation. MeCN was removed with nitrogen gas, and the acidified water extracts were loaded into 1cc Oasis HLB cartridges. After washing with water containing 1% AcOH, plant ABA was eluted with 80% MeCN containing 1% AcOH. MeCN was removed, and samples were loaded into 1cc Bond Elute DEA cartridges (Agilent). After washing with MeOH, the ABA was eluted using MeOH containing 1% AcOH. The fractions containing ABA were dried, dissolved in water containing 1% AcOH, and analysed by LC–MS/MS as described previously[35]. The LC conditions for Arabidopsis samples were as follows: solvent A, water containing 0.01% (v/v) acetic acid; solvent B, MeCN containing 0.05% (v/v) acetic acid; and linear gradient, 3 to 40% solvent B over 9 min. Experiments were performed in triplicate, and the results were averaged.
25 µ M (−)-Abz-E3M (n = 3,error bar represents s.d.).Eleven-day-old seedlings of wild-type (Col accession) […]

abscinazole-E3M [(−)-6]: the “Endogenous ABA levels” value in the assay on endogenous ABA level is on record as “increased the endogenous ABA levels”. Moreover, the “ABA catabolism / ABA accumulation in plants” value with ABA catabolism was “inhibited ABA catabolism and increased ABA accumulation in plants”. The “ABA-inducible GUS staining (MAPKKK18::GUS)” value in assay [1] was “enhanced the ABA-inducible GUS staining”.
